Measured values from patent publication US20160151369A1, “SUBSTITUTED 3-PHENYLPROPYLAMINE DERIVATIVES FOR THE TREATMENT OF OPHTHALMIC DISEASES AND DISORDERS” (ACUCELA INC., priority 2013, published 2016).
Where two headings read alike, the source gives them in different places.

What was measured:
[1] = system: retinal isomerase activity (regeneration of 11-cis-retinal); test: Comparative in vivo murine isomerase assay, dose response (compound A vs compound D); parameters: species or system BALB/c mice
Method: (§1) All test compounds were stored at room temperature, dessicated.
On the day prior to dose administration compound A and compound D were weighed into new empty glass vials. The compounds were dissolved in di-water at the concentration of 0.833 mg/mL compound A and 0.892 mg/mL compound D, serially diluted into various concentrations, and stored overnight at 4 OC.
56 Male BALB/c mice (Charles River Laboratories) were used for this study. The mice were approximately 8 weeks at the initiation of dosing with an average body weight of 24 grams.
The day prior to dose administration 56 BALB/c mice were placed into a dark room and dark adapted for a minimum of 12 hours prior to dose administration. The mice were maintained in the dark for the duration of the study.
Each animal was removed from its cage and dosed accordingly to the study design in Table 4 (see below). Each animal was administered 0.1 mL of the appropriate compound or vehicle via oral gavage using a 1 mL syringe fitted with a 23 gauge oral gavage needle. Two hours following dose administration, animals were removed from the dark and exposed to 5000 Lux white light for 10 minutes to photobleach their eyes.
Following the completion of the photobleach the animals were returned to the dark for 2 hours to allow for the regeneration of 11-cis-retinal in the eyes. Two hours after photobleaching each animal was euthanized with carbon dioxide followed by cervical dislocation, in the dark under red light. The light control group was euthanized immediately following photobleaching. Immediately following the cervical dislocation both eyes of each animal were removed and transferred into separate tubes, flash frozen in liquid nitrogen and stored in the dark at −80° C. until processing and analysis.
(§2) All sample processing procedures were performed in the dark under red light.
Extracted samples were analyzed using an Agilent 1100 HPLC system according to the procedure outlined in Table 6 (see below)
(§3) HPLC analysis of the eyes measures the peak area units of the 110 cis-Ral-Oxime_syn. Signal.
(§4) Data analysis % inhibition (drug vs. recovery control). % control (drug vs. light control), and One-way ANOVA (followed by Tukey's Multiple Comparison) were performed using peak area units and performed by Prism software. Data are represented as mean and standard deviation.

[2] = system: regeneration of 11-cis-retinal (isomerase); test: Single dose time course in the in vivo isomerase assay at 0.3 mg/kg (compound A vs compound D); conditions: BALB/c mice, single oral dose 0.3 mg/kg; for inhibition at 0.3 mg/kg: Mus musculus, read-out: Percent Inhibition, 0.3 mg/kg, Avg. % Inhibition
Method: as §1
On the day prior to dose administration 3-amino-1-(3-((tetrahydro-2H-pyran-4-yl)methoxy)phenyl)propan-1-ol (compound A) and 3-amino-1-(3-((tetrahydro-2H-pyran- 2-yl)methoxy)phenyl)propan-1-ol (compound D) were weighed into new empty glass vials. The compounds were dissolved in di-water at the concentration of 0.068 mg/mL and stored overnight at 4° C.
52 Male BALB/c mice (Charles River Laboratories) were used for this study. The mice were approximately 8 weeks at the initiation of dosing with an average body weight of 23 grams.
The day prior to dose administration 52 BALB/c mice were placed into a dark room and dark adapted for a minimum of 12 hours prior to dose administration. The mice were maintained in the dark for the duration of the study.
Each animal was removed from its cage and dosed accordingly to the study design in Table 10 (see below). Each animal was administered 0.1 mL of the appropriate test article or vehicle orally using a 1 mL syringe fitted with a 23 gauge oral gavage needle. At 2, 4, 6, 8, 16 or 24 hours following dose administration, animals were removed from the dark and exposed to 5000 Lux white light for 10 minutes to photobleach their eyes. Following the completion of the photobleach the animals were returned to the dark for 2 hours to allow for the regeneration of 11-cis-retinal in the eyes. Two hours after photobleaching each animal was euthanized with carbon dioxide followed by cervical dislocation, in the dark under red light. The light control group was euthanized immediately following photobleaching. Immediately following the cervical dislocation both eyes of each animal were removed and transferred into separate tubes, flash frozen in liquid nitrogen and stored in the dark at −80° C. until processing and analysis.
as §2
Extracted samples were analyzed using an Agilent 1100 HPLC system according to the procedure outlined in Table 12 (see below)
as §3, §4

[3] = system: isomerase (recovery of 11-cis-retinal after bleaching); test: In vivo murine isomerase assay (Table 3); conditions: Mus musculus, po, mice
Method: The capability of compounds described herein to inhibit isomerase was determined by an in vivo murine isomerase assay. […] The recovery of 11-cis-retinal after bleaching can be used to estimate the activity of isomerase in vivo. Delayed recovery, as represented by lower 11-cis-retinal oxime levels, indicates inhibition of isomerization reaction.
Mice were gavaged with the test compound. […] The mice were allowed to recover 2 hours in the dark. The animals were then sacrificed by carbon dioxide inhalation. Retinoids were extracted from the eye and the regeneration of 11-cis-retinal was assessed at various time intervals.
After the mice were sacrificed, the eyes were immediately removed and placed in liquid nitrogen for storage.
The eyes were placed in 500 μL of bis-tris propane buffer (10 mM, pH˜7.3) and 20 μL of 0.8M hydroxile amine (pH˜7.3). The eyes were cut up into small pieces with small iris scissors and then thoroughly homogenized at 30000 rpm with a mechanical homogenizer (Polytron PT 1300 D) in the tube until no visible tissue remained. 500 μL of methanol and 500 μL of heptane were added to each tube. The tubes were attached to a vortexer so that the contents were mixed thoroughly for 15 minutes in room temperature. The organic phase was separated from the aqueous phase by centrifugation for 10 min at 13K rpm, 4° C. 240 μL of the solution from the top layer (organic phase) was removed and transferred to clean 300 μl glass inserts in HPLC vials using glass pipette and the vials were crimped shut tightly.
The samples were analyzed on an Agilent 1100 HPLC system with normal phase column: SILICA (Beckman Coutlier, dp 5 μm, 4.6 mM×250 mM). […] Loading volume for each sample was 100 μl; detection wavelength was 360 nm. The area under the curve for 11-cis retinal oxime was calculated by Agilent Chemstation software and was recorded manually. Data processing was performed using Prizm software.
Positive control mice (no compound administered) were sacrificed fully dark-adapted and the eye retinoids analyzed. Light (bleached) control mice (no compound administered) were sacrificed and retinoids isolated and analyzed immediately after light treatment.
A time course study was performed to determine the isomerase inhibitory activity of the test compound. […] The animals were then “photo-bleached” (5000 Lux white light for 10 minutes) at 2, 4, 8, 16 and 24 hours after dosing, and returned to darkness to allow recovery of the 11-cis-retinal content of the eyes. Mice were sacrificed 2 hours after bleaching, eyes were enucleated, and retinoid content is analyzed by HPLC.
Recovery control mice (vehicle-only treated) were light-treated and left to recover for 2 hours in the dark before sacrifice and analysis. Light control mice (vehicle only treated) were sacrificed for analysis immediately after photo-bleaching.
An in vivo dose response isomerase inhibition study was performed with test compound. […] Recovery and retinoid analysis were performed as described above. Dark control mice were vehicle-only treated, sacrificed fully dark adapted without light treatment, and analyzed. Recovery control mice and light control mice were included in the study as per the initial phase.

With NCC[C@@H](O)c1cccc(OCC2CCOCC2)c1 [Example 1] as the compound, how does the “dose at which 11-cis-retinal recovery was inhibited by 50% (called IC50)” value ([1]; BALB/c mice, single oral dose, 2 h, dose response experiment) read?
The value was 0.17 mg/kg.

What about the inhibition at 0.03 mg/kg ([1]; Mus musculus, po, 2 h, BALB/c mice, single oral dose 0.03 mg/kg, bleach 2 h after dose, drug vs. recovery control, read-out: Percent Inhibition at 2 Hours, Avg. % Inhibition) of the same compound?
The inhibition at 0.03 mg/kg was -44.1%.

And the inhibition at 0.1 mg/kg ([1]; Mus musculus, po, 2 h, BALB/c mice, single oral dose 0.1 mg/kg, bleach 2 h after dose, drug vs. recovery control, read-out: Percent Inhibition at 2 Hours, Avg. % Inhibition)?
Its inhibition at 0.1 mg/kg is -9.8%.

And the inhibition at 0.3 mg/kg ([1]; Mus musculus, po, 2 h, BALB/c mice, single oral dose 0.3 mg/kg, bleach 2 h after dose, drug vs. recovery control, read-out: Percent Inhibition at 2 Hours, Avg. % Inhibition)?
The inhibition at 0.3 mg/kg was greater than 90%.

What about the inhibition at 0.5 mg/kg ([1]; Mus musculus, po, 2 h, BALB/c mice, single oral dose 0.5 mg/kg, bleach 2 h after dose, drug vs. recovery control, read-out: Percent Inhibition at 2 Hours, Avg. % Inhibition) of the same compound?
Its inhibition at 0.5 mg/kg is roughly 100%.

What about the inhibition at 1 mg/kg ([1]; Mus musculus, po, 2 h, BALB/c mice, single oral dose 1 mg/kg, bleach 2 h after dose, drug vs. recovery control, read-out: Percent Inhibition at 2 Hours, Avg. % Inhibition) of the same compound?
The inhibition at 1 mg/kg was 100%.

And the inhibition at 3 mg/kg ([1]; Mus musculus, po, 2 h, BALB/c mice, single oral dose 3 mg/kg, bleach 2 h after dose, drug vs. recovery control, read-out: Percent Inhibition at 2 Hours, Avg. % Inhibition)?
Its inhibition at 3 mg/kg is 105%.

What about the activity at 0.03 mg/kg ([1]; Mus musculus, BALB/c mice, single oral dose 0.03 mg/kg, bleach 2 h after dose, read-out: Percent control at 2 Hours (Avg. % Inhibition)) of the same compound?
Its activity at 0.03 mg/kg is 144%.

And the activity at 0.1 mg/kg ([1]; Mus musculus, BALB/c mice, single oral dose 0.1 mg/kg, bleach 2 h after dose, read-out: Percent control at 2 Hours (Avg. % Inhibition))?
Its activity at 0.1 mg/kg is 110%.

And the activity at 0.3 mg/kg ([1]; Mus musculus, BALB/c mice, single oral dose 0.3 mg/kg, bleach 2 h after dose, read-out: Percent control at 2 Hours (Avg. % Inhibition))?
Its activity at 0.3 mg/kg is 7.6%.

What about the activity at 0.5 mg/kg ([1]; Mus musculus, BALB/c mice, single oral dose 0.5 mg/kg, bleach 2 h after dose, read-out: Percent control at 2 Hours (Avg. % Inhibition)) of the same compound?
Its activity at 0.5 mg/kg is 0.7%.

What about the activity at 1 mg/kg ([1]; Mus musculus, BALB/c mice, single oral dose 1 mg/kg, bleach 2 h after dose, read-out: Percent control at 2 Hours (Avg. % Inhibition)) of the same compound?
The activity at 1 mg/kg was -0.4%.

And the activity at 3 mg/kg ([1]; Mus musculus, BALB/c mice, single oral dose 3 mg/kg, bleach 2 h after dose, read-out: Percent control at 2 Hours (Avg. % Inhibition))?
Its activity at 3 mg/kg is -5.2%.

What about the “dose showing nearly 100% inhibition” value ([1]; dose response experiment, 2 h) of the same compound?
The value was 0.5 mg/kg.

What about the “times more active than compound D, by dose for nearly 100% inhibition” value ([1]; dose response experiment, 2 h) of the same compound?
Its value is “approximately 6 ×”.

And the “times more active than compound D, by inhibition at a dose of 0.3 mg/kg” value ([1]; dose response experiment, 2 h)?
The value was “greater than 10 ×”.

What about the “Percent Control, 0.3 mg/kg (average)” value ([2]; Time Point 2 Hours) of the same compound?
Its value is 2.0%.

And the “Percent Control, 0.3 mg/kg (average)” value ([2]; Time Point 4 Hours)?
Its value is 11.5%.

What about the “Percent Control, 0.3 mg/kg (average)” value ([2]; Time Point 6 Hours) of the same compound?
The value was 43.7%.

What about the “Percent Control, 0.3 mg/kg (average)” value ([2]; Time Point 8 Hours) of the same compound?
The value was 79.8%.

What about the “Percent Control, 0.3 mg/kg (average)” value ([2]; Time Point 16 Hours) of the same compound?
The value was 98.5%.

What about the “Percent Control, 0.3 mg/kg (average)” value ([2]; Time Point 24 Hours) of the same compound?
The value was 95.8%.

What about the inhibition at 0.3 mg/kg ([2]; Time Point 2 Hours) of the same compound?
The inhibition at 0.3 mg/kg was 98%.

What about the inhibition at 0.3 mg/kg ([2]; Time Point 4 Hours) of the same compound?
The inhibition at 0.3 mg/kg was 88.5%.

What about the inhibition at 0.3 mg/kg ([2]; Time Point 6 Hours) of the same compound?
Its inhibition at 0.3 mg/kg is 56.3%.

And the inhibition at 0.3 mg/kg ([2]; Time Point 8 Hours)?
The inhibition at 0.3 mg/kg was 20.2%.

And the inhibition at 0.3 mg/kg ([2]; Time Point 16 Hours)?
The inhibition at 0.3 mg/kg was 1.5%.

And the inhibition at 0.3 mg/kg ([2]; Time Point 24 Hours)?
Its inhibition at 0.3 mg/kg is 4.2%.

What about the inhibition at 0.03 mg/kg ([3]; 2 h, Dose 0.03 mg/kg) of the same compound?
Its inhibition at 0.03 mg/kg is -2.7%.

What about the inhibition at 0.1 mg/kg ([3]; 2 h, Dose 0.1 mg/kg) of the same compound?
The inhibition at 0.1 mg/kg was 3.4%.

What about the inhibition at 0.3 mg/kg ([3]; 2 h) of the same compound?
The inhibition at 0.3 mg/kg was 58.4%.

And the inhibition at 0.5 mg/kg ([3]; 2 h, Dose 0.5 mg/kg)?
The inhibition at 0.5 mg/kg was 89.9%.

And the inhibition at 0.81 mg/kg ([3]; 2 h)?
Its inhibition at 0.81 mg/kg is 98.2%.

And the inhibition at 1 mg/kg ([3]; 2 h)?
The inhibition at 1 mg/kg was 96.9%.

And the inhibition at 3 mg/kg ([3]; 2 h, Dose 3 mg/kg)?
Its inhibition at 3 mg/kg is 101%.

And the inhibition at 0.3 mg/kg ([3]; 4 h)?
The inhibition at 0.3 mg/kg was 15.7%.

What about the inhibition at 0.81 mg/kg ([3]; 4 h) of the same compound?
The inhibition at 0.81 mg/kg was 87.9%.

And the inhibition at 1 mg/kg ([3]; 4 h)?
The inhibition at 1 mg/kg was 91.1%.

What about the inhibition at 0.81 mg/kg ([3]; 6 h) of the same compound?
The inhibition at 0.81 mg/kg was 75.8%.

What about the inhibition at 0.3 mg/kg ([3]; 8 h) of the same compound?
The inhibition at 0.3 mg/kg was 10.4%.

What about the inhibition at 0.81 mg/kg ([3]; 8 h) of the same compound?
Its inhibition at 0.81 mg/kg is 51.8%.

And the inhibition at 1 mg/kg ([3]; 8 h)?
Its inhibition at 1 mg/kg is 62%.

And the inhibition at 0.3 mg/kg ([3]; 16 h)?
Its inhibition at 0.3 mg/kg is -2.7%.

And the inhibition at 0.81 mg/kg ([3]; 16 h)?
The inhibition at 0.81 mg/kg was 5.5%.

What about the inhibition at 1 mg/kg ([3]; 16 h) of the same compound?
Its inhibition at 1 mg/kg is -1.2%.

What about the inhibition at 0.3 mg/kg ([3]; 24 h) of the same compound?
The inhibition at 0.3 mg/kg was -4.4%.

What about the inhibition at 0.81 mg/kg ([3]; 24 h) of the same compound?
Its inhibition at 0.81 mg/kg is -4.8%.

What about the inhibition at 1 mg/kg ([3]; 24 h) of the same compound?
Its inhibition at 1 mg/kg is 3.8%.
